What follows are compounds tested against T1, human vasopressin V1b receptor (Homo sapiens, UniProt P47901) (assay: Vasopressin V1b receptor binding test). Conditions: membranes of CHO-K1 cells, displacement of 1.5 nM 3H-AVP.
T1 construct: expressed in transfected cells; host or cells: CHO-K1 (cell line hV1b_3H2_CHO), membrane preparation
T1 sequence (P47901 1-424): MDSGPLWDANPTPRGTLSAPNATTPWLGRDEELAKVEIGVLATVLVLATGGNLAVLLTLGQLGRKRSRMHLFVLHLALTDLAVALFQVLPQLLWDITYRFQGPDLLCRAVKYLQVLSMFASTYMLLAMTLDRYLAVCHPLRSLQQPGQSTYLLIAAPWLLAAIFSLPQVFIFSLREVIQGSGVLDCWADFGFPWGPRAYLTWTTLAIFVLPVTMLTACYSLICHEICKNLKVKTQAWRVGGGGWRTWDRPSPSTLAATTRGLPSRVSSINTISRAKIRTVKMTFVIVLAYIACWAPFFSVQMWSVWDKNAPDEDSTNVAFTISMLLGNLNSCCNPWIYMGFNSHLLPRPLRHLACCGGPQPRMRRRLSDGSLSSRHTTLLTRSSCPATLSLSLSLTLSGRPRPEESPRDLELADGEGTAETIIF
Outline: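 Radioligand competition binding to human V1b receptor membranes in 50 mM Tris, 10 mM MgCl2, 0.1% BSA, pH 7.4; nonspecific binding with 1 μM AVP.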
`CCOc1ccc(OC)cc1C1(N2CCN(c3ccncc3)CC2)C(=O)N(S(=O)(=O)c2ccc(OC)cc2)c2ccc(C#N)cc21` (stereo not shown) [Example 62, 5-Cyano-3-(2-ethoxy-5-methoxyphenyl)-1-(4-methoxy-benzenesulphonyl)-3-(4-pyridin-4-yl-piperazin-1-yl)-2,3-dihydro-1H-indol-2-one] gave a Ki of less than 50 nM.
Compound `COc1ccc(S(=O)(=O)N2C(=O)C(c3cc(OC)ccc3OC)(N3CCN(c4ccncc4)CC3)c3cc(C#N)ccc32)cc1` (stereo not shown) [Example 63, 5-Cyano-3-(2,5-dimethoxyphenyl)-1-(4-methoxy-benzenesulphonyl)-3-(4-pyridin-4-yl-piperazin-1-yl)-2,3-dihydro-1H-indol-2-one] has a Ki of less than 50 nM.
`CCOc1c(OC)cccc1C1(N2CCN(c3ccnc(C(C)C)c3)CC2)C(=O)N(S(=O)(=O)c2ccc(OC)cc2OC)c2ccc(C#N)cc21` (stereo not shown) [Example 110, 5-Cyano-1-(2,4-dimethoxybenzenesulphonyl)-3-(2-ethoxy-3-methoxyphenyl)-3-[4-(2-isopropylpyridin-4-yl)-piperazin-1-yl]-2,3-dihydro-1H-indol-2-one×trifluoroacetic acid] showed a Ki of less than 50 nM.
`CCOc1cc(OC)ccc1C1(N2CCN(c3ccnc(C(C)C)c3)CC2)C(=O)N(S(=O)(=O)c2ccc(OC)cc2OC)c2ccc(C#N)cc21` (stereo not shown) [Example 111, 5-Cyano-1-(2,4-dimethoxybenzenesulphonyl)-3-(2-ethoxy-4-methoxyphenyl)-3-[4-(2-isopropylpyridin-4-yl)-piperazin-1-yl]-2,3-dihydro-1H-indol-2-one×trifluoroacetic acid] gave a Ki of less than 50 nM.
`CCOc1ccccc1C1(N2CCN(c3ccncc3)CC2)C(=O)N(S(=O)(=O)c2ccc(OC(C)C)cc2)c2ccc(C#N)cc21` (stereo not shown) [Example 113, 5-Cyano-3-(2-ethoxyphenyl)-1-(4-isopropoxybenzenesulphonyl)-3-(4-pyridin-4-yl-piperazin-1-yl)-2,3-dihydro-1H-indol-2-one×trifluoroacetic acid] gave a Ki of 50 to 500 nM.
`CCOc1ccccc1C1(N2CCN(c3ccncc3)CC2)C(=O)N(S(=O)(=O)c2ccc(C)cc2F)c2ccc(C#N)cc21` (stereo not shown) [Example 115, 5-Cyano-3-(2-ethoxyphenyl)-1-(2-fluoro-4-methylbenzenesulphonyl)-3-(4-pyridin-4-yl-piperazin-1-yl)-2,3-dihydro-1H-indol-2-one] gave a Ki of 50 to 500 nM.
Compound `CCOc1ccc(OC)cc1C1(NCCNc2ccncc2)C(=O)N(S(=O)(=O)c2ccc(OC)cc2OC)c2ccc(C#N)cc21` (stereo not shown) [Example 122, 5-Cyano-1-(2,4-dimethoxybenzenesulphonyl)-3-(2-ethoxy-5-methoxyphenyl)-3-[2-(pyridin-4-ylamino)-ethylamino]-2,3-dihydro-1H-indol-2-one] has a Ki of less than 50 nM.

— patent US8431567B2 (Abbott GmbH & Co. KG, priority 2006, dated 2013)
